Results: US7288258B2, “Polyepitopic protein fragments of the E6 and E7 proteins of HPV, their production and their use particularly in vaccination” (Peptide Immune Ligands, priority 1999, dated 2007)

Tests used:
Assay in all cases: association of peptide with HLA molecules and stability of the complex
Format in all cases: binding, human
Conditions in all cases: stable complex: peptide remains bound for at least about 3 hours at 37° C.
[1] = tested on: HLA molecules of the B8 type
Description: (§1) The different epitopes of the polyepitopic region of the predetermined protein, and delimiting the epitopic protein fragments, are preferably selected from the peptides; • binding to a predetermined molecule of MCH, particularly to a molecule of the predetermined HLA type, and this from concentrations of about 10^−6 M to about 10^−10 M in peptide for concentrations of about 10^−7 M of HLA molecules, particularly under the conditions described hereafter, • and forming a stable complex with said MCH molecule, namely particularly a complex in which said peptide remains bound to said molecule for at least about 3 hours at 37° C.
(§2) By way of illustration, the above-mentioned epitopes of the invention are selected from among the peptides adapted: • on the one hand of associating with the molecules of MCH, particularly by using the following method: • incubation (particularly for about 2 hours at 25° C., then about 15 hours at 4° C.) of the peptide in the presence of MCH molecules, from the lysis of human or animal cells, or purified particularly by affinity chromatography from human or animal cell lines, • trapping complexes formed during the preceding step on a solid support covered with a first antibody, particularly monoclonal, recognizing specifically the CMH molecules in their configuration dependent on their connection to said peptide, • addition to the preceding solid support of a second marked antibody, particularly by coupling to a radioactive, enzymatic or fluorescent marker, said marked antibody recognizing specifically either the long chains of MCH in their configuration dependent on their connection to the peptide, or the short chain of MCH or the β2-microglobulin binding specifically to the different long chains of the MCH in their above-mentioned configuration, • detection, after rinsing of the solid support, of the possible presence of the second marked antibody remaining fixed on the solid support, signifying an association effect between the molecules of MCH and the peptide studied, • and, on the other hand, forming a complex with said MCH molecules, whose stability can be evaluated by the use of a method of following according to time the connection established between the peptide and the MCH molecules, this method being preferably carried out according to a protocol identical to the preceding method, but in which the incubation step of the peptide in the presence of MCH molecules on the solid support covered with said first antibody, is preceded by a preliminary step of eliminating the free peptide adapted that may be present in the reaction medium, particularly by washing the solid support, said incubation step being carried out (preferably at a temperature of 37° C.) for variable times of 1 hours, 3 hours, 5 hours, 24 hours and 48 hours.
(§3) As mentioned above, the epitopes of the invention should be recognized by the T cells in association with the MCH molecules and associate with these latter, particularly in the framework of the practice of the recognition test described above. This association can be weak (detectable at concentrations of peptide analogs of the order of 10^−4 to 10^−5 M), intermediate (detectable at concentrations of peptide analogs of the order of 10^−6 to 10^−7 M), or strong (detectable at concentrations of peptide analogs of the order of 10^−8 to 10^−9 M). The peptides associated with the MCH molecules in the scope of the present invention are preferably adapted to bond during at least about 3 hours, to said MCH molecules.

[2] = tested on: HLA molecules of the B35 type
Description: as §1, §2, §3

[3] = tested on: HLA molecules of the B18 type
Description: as §1, §2, §3

[4] = tested on: HLA molecules of the B51 type
Description: as §1, §2, §3

[5] = tested on: HLA molecules of the A1 type
[6] = tested on: HLA molecules of the B62 type
Description: as §1, §2, §3

Sequence	binding stably to HLA molecules of the B18 type [3]	binding stably to HLA molecules of the A1 type [5]	binding stably to HLA molecules of the B62 type [6]	also measured
CPEEKQRHL (Human Papillomavirus)	binding stably			binding stably to HLA molecules of the B8 type [1]: binding stably; binding stably to HLA molecules of the B35 type [2]: binding stably; binding stably to HLA molecules of the B51 type [4]: binding stably
ISEYRHYCY (Human Papillomavirus)	binding stably	binding stably		
LQPETTDLY (Human Papillomavirus)			binding stably	
NLLGRNSF (listed as Homo sapiens)			binding stably	
QAEPDRAHY (Human Papillomavirus)	binding stably	binding stably		
QPETTDLYCY (Human Papillomavirus)	binding stably	binding stably		
RVRAMAIY (listed as Homo sapiens)			binding stably	
TAKSVTCTY (listed as Homo sapiens)			binding stably	
